In patent US6670144B1 (priority 1999, dated 2003):
Where no end group is shown, it is not given here.

Legend:
[1] = target: T1, Chk1 protein kinase (Homo sapiens, UniProt O14757); conditions: EDTA 10 mM or 20 mM added prior to enzyme addition; FIG. 8
[2] = target: T1, Chk1 protein kinase; conditions: EDTA 1 mM, 5 mM or 20 mM added before 21 mU Chk1; FIG. 11
[3] = target: Yersinia protein tyrosine phosphatase (YOP) (Yersinia enterocolitica, UniProt P15273); type: biochemical; conditions: read-out: IC50 for inhibition of YOP
Sequence of Yersinia protein tyrosine phosphatase (YOP) (P15273 whole entry): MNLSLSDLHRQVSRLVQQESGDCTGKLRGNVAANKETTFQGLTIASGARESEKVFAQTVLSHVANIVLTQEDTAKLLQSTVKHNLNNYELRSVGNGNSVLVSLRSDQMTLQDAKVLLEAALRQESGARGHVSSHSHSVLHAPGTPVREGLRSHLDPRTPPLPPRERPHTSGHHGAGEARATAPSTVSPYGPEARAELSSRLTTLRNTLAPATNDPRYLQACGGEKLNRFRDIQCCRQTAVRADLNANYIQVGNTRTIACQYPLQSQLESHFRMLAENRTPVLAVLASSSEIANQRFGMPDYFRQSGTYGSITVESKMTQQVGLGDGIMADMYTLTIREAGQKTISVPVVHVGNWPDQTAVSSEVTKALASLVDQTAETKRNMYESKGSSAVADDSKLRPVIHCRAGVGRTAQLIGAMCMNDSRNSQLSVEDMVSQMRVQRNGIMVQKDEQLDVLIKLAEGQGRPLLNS

[4] = target: Src kinase (Homo sapiens, UniProt P12931); experiment: FRET assay of Src phosphorylation of rhodamine labelled SHPS-1 peptide, read by binding to SHP2-GFP; type: biochemical; conditions: 10 μM staurosporine added before the Src enzyme; FIG. 19
Sequence of Src kinase (P12931 whole entry, the tested form may be a part): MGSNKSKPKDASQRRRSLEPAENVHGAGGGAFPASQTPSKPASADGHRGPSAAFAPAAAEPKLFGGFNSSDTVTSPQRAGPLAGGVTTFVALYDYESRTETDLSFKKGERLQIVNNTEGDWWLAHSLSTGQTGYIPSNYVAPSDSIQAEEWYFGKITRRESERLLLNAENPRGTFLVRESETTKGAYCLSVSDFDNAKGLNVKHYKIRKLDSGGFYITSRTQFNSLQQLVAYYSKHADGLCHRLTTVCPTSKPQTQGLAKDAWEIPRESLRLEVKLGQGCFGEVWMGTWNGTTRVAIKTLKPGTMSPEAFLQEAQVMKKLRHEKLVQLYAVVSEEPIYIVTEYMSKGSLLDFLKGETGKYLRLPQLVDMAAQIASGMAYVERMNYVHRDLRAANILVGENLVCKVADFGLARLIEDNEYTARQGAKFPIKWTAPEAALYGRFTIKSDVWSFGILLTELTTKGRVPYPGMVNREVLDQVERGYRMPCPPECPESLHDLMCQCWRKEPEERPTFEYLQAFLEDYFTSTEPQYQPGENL
Method: These FRET-based assays are performed to measure Src kinase activity as determined by the Src kinase dependent formation of a complex between the SH2 domain of SHP2 labelled with a fluorophore and an synthetic peptide based on SHPS-1, also labelled with a fluorophore.
Interaction between the tandem SH2 domain of SHP2 and a synthetic peptide based on SHPS-1 is mediated by the state of phosphorylation of the peptide. A FRET partnership can be established between phosphorylated peptide and the SH2 domain providing both moieties are labelled with suitable fluorophores which are brought into close proximity upon interaction of binding partners. […]
SHP2-GFP was diluted to 0.5 μM in assay buffer (50 mM Tris HCL pH 7.2, 10 mM β-mercaptoethanol, 0.5 mg/ml BSA, 0.015% Brij 35). […] Initial readings of the fluorescence of the SHP2-GFP construct were made using 485 nm excitation wavelength and 520 nm emission wavelength. Rhodamine labelled peptide (2 μl of the above phosphorylation reactions) was added to the SHP2-GFP solution and formation of FRET was monitored in real-time by measuring the decrease in fluorescence emission of SHP2-GFP at 520 nm as shown in FIG. 17. […]

[5] = target: T2, PKA Peptide 2, labelled with biotin and bound to streptavidin, non-phosphorylated (biotin label (bound to streptavidin in the assay)); experiment: fluorescence polarisation of coumarin labelled peptide 1 with biotin labelled peptide 2 on streptavidin
T2 construct: Coiled-coil forming peptide with a PKA phosphorylation site
T2 peptide: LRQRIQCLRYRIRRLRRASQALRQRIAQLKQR

T1 sequence (O14757 whole entry): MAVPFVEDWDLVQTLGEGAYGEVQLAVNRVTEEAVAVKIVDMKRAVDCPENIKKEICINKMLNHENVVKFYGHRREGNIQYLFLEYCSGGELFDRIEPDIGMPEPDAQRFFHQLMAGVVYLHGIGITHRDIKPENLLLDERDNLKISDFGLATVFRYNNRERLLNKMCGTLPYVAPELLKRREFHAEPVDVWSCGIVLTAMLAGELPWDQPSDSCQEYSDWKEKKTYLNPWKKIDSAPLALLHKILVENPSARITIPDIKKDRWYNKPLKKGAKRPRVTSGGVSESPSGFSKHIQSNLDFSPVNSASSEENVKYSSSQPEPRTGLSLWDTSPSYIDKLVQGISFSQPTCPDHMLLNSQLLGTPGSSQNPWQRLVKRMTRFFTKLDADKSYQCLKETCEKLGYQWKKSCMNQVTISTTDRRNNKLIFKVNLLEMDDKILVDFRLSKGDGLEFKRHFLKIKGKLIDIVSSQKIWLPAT

Question: With `O=C(O)CN(CCN(CC(=O)O)CC(=O)O)CC(=O)O` [EDTA] as the molecule, how does the “Inhibition of Chk1 phosphorylation of Chktide peptide (end point)” value [1] read?
Answer: inhibition

Question: What about the “Inhibition of Chk1 phosphorylation of fluorescein labelled Chktide (real time)” value [2] of the same molecule?
Answer: inhibition

Question: Which IC50 [3] does the source give for `[Na+].[Na+].[Na+].[O]=[V]([O-])([O-])[O-]` [vanadate, Sodium orthovanadate] here?
Answer: 250 nM

Question: For `CN[C@@H]1C[C@H]2O[C@@](C)([C@@H]1OC)n1c3ccccc3c3c4c(c5c6ccccc6n2c5c31)C(=O)NC4` [staurosporine], which “Inhibition of Src: formation of FRET partnership between SH2 domain of SHP2 and SHPS-1 peptide” value [4] is on record?
Answer: failed to form a FRET partnership

B1: PKA Peptide 1, labelled with coumarin, non-phosphorylated (peptide)
peptide: EREIKALEREIRRLRRASQALEREIAQLERE
modifications: also: coumarin label, position not given here
notes: Coiled-coil forming peptide with a PKA phosphorylation site; also called coumarin labelled peptide 1
Question: Does B1 bind [5]?
Answer: binds
